The record followed here is ChEMBL document CHEMBL1144763, “Synthesis of diglycosylceramides and evaluation of their iNKT cell stimulatory properties” (Bioorg Med Chem Lett, 2008).

The source made the active and inactive calls. The rule behind the calls is not given here.

This test deals with DN3.2.D3. Briefly: Stimulation of IL2 release in mouse DN3.2.D3 cells by ELISA. In kind it is functional, cell-based.
As for `CCCCCCCCCCCCCC[C@@H](O)[C@@H](O)[C@H](CO[C@H]1O[C@H](CO)[C@H](O)[C@H](O)[C@H]1O)NC(=O)CCCCCCC`, the result was Active.

Take `CCCCCCCCCCCCCC[C@@H](O)[C@@H](O)[C@H](CO[C@H]1O[C@H](CNC(C)=O)[C@H](O)[C@H](O)[C@H]1O[C@H]1O[C@H](CO)[C@H](O)[C@H](O)[C@H]1O)NC(=O)CCCCCCC`: the outcome was Active.

`CCCCCCCCCCCCCC[C@@H](O)[C@@H](O)[C@H](CO[C@H]1O[C@H](CNC(C)=O)[C@H](O)[C@H](O)[C@H]1O)NC(=O)CCCCCCC`: the outcome was Active.
